Laboratory results as given in US20220233641A1, “Methods and Compositions for Treating Obesity and/or Skin Disorders” (THE TRUSTEES OF THE UNIVERSITY OF PENNSYLVANIA, priority 2019, published 2022).
“Also recorded” adds a separate entry of the source.

Experiments:
[1] = test system: HFD-fed mice; assay: Topical MC903 in HFD-fed WT C57BL/6 mice (weight gain, eWAT, GTT, HOMA-IR, liver histology); assay type: in vivo, mouse
Method: WT C57BL/6 mice were fed a normal chow (NC) or 40% high fat diet (HFD) for 12 weeks. The mice were topically treated with either vehicle (EtOH) or MC903 (2 nmol/ear) on both ears Monday, Wednesday, and Friday on odd weeks. (FIG. 1A) Mice were weighed weekly and % change from baseline is plotted as mean±SEM. (FIG. 1B) The mice were euthanized on Week 12 and the epididymal fat pads were weighed. (FIG. 1C, FIG. 1D) Glucose tolerance test was performed on Week 12 by injection of glucose and subsequent measurements of blood glucose levels. HOMA-IR analysis was performed after an overnight fast at Week 12. *, **, and *** indicate statistical significance of p<0.05, p<0.01, and p<0.001, respectively by Student t-test or ANOVA.
WT C57BL/6 mice were fed a normal chow (NC) or 40% high fat diet (HFD) for 12 weeks. The mice were topically treated with either vehicle (EtOH) or MC903 (2 nmol/ear) on both ears Monday, Wednesday, and Friday on odd weeks. Shown are representative histological images of the liver on Week 12.
Wildtype C57BL/6 mice were fed a normal chow (NC) or 40% high fat diet (HFD) for 12 weeks. The mice were topically treated with either vehicle (EtOH) or MC903 (2 nmol/ear) on both ears Monday, Wednesday, and Friday on odd weeks. (A) Mice were weighed weekly and % change from baseline is plotted as mean±SEM. (B) The mice were euthanized on Week 12 and the epididymal fat pads were weighed. (C, D) Glucose tolerance test (GTT) was performed on Week 12 by injection of glucose and subsequent measurements of blood glucose levels. Homeostatic model assessment-insulin resistance (HOMA-IR) analysis was performed after an overnight fast at Week 12. *, **, and *** indicate statistical significance of p<0.05, p<0.01, and p<0.001, respectively by Student t-test or ANOVA.
C57BL/6 mice were fed a normal chow (NC) or 40% high fat diet (HFD) for 12 weeks. The mice were topically treated with either vehicle (EtOH) or MC903 (2 nmol/ear) on both ears Monday, Wednesday, and Friday on odd weeks. Shown are representative histological images of the liver on Week 12.

[2] = test system: HFD-fed TSLP-R KO mice; assay: Topical MC903 in HFD-fed TSLP-R KO mice; assay type: in vivo, mouse; conditions: HFD-fed TSLP-R-deficient mice, topical MC903 2 nmol/ear, 12 weeks
Method: (§1) TSLP-R KO mice were fed a normal chow (NC) or 40% high fat diet (HFD) for 12 weeks. The mice were topically treated with either vehicle (EtOH) or MC903 (2 nmol/ear) on both ears Monday, Wednesday, and Friday on odd weeks. Mice were weighed on the indicated time points and plotted as mean±SEM. Glucose tolerance test was performed on Week 12 by injection of glucose and subsequent measurements of blood glucose levels. AUC analysis is performed on the GTT curves. * indicates statistical significance of p<0.05 by Student t-test.
as §1, with “TSLP-R knock out (KO) mice were” for “TSLP-R KO mice were”, “tolerance test (GTT) was performed” for “tolerance test was performed”

[3] = test system: human individual; assay: Topical MC903 application to arm or leg of human individuals (remote effects on sebum, dry skin, scalp hair, dry eye); assay type: in vivo
Method: MC903 was applied topically to the right arm of an individual daily. Sebum measurements were obtained by cleaning the forehead with ethanol wipe, resting for 15 minutes, and placing sebutape on the forehead for 2 minutes. Black dots on the blue and white background of the tape indicates the presence of sebum at each day post treatment.
MC903 was applied topically to the right arm of an individual daily. Photographs of the right hand before and after 3 or 5 days post treatment is shown. The individual was treated for 14 days total with no need of hand cream at least 9 weeks even after treatment was discontinued. In certain embodiments, secretion of sebum lasts after cessation of treatment.
MC903 was applied topically to the left arm daily of an individual for 14 days (1st treatment). Treatment was stopped for 4 weeks and restarted for an additional 2 weeks (2nd treatment) on the right arm daily. Photographs of the scalp before, 2 weeks after 1st treatment, 11 days after 2nd treatment, and 8 weeks after 2nd treatment are shown.[…].
MC903 was applied topically to the left arm daily of an individual and the right leg another individual for 14 days (1st treatment). The presence of dry eye symptoms was subjectively evaluated in the two individuals before and after treatment. The response is plotted in a bar graph.

[4] = HFD-fed mice, Week 12, vs vehicle

C=C1/C(=C\C=C2/CCC[C@]3(C)[C@@H]([C@H](C)/C=C/[C@@H](O)C4CC4)CC[C@@H]23)C[C@@H](O)C[C@@H]1O [MC903, 26,27-cyclo-22-ene-1α,24S-dihydroxyvitamin D3]
weight gain ([1]; HFD-fed WT C57BL/6 mice, topical MC903 2 nmol/ear, 12 weeks, vs vehicle (EtOH)): significantly reduced weight gain; also recorded: significantly less weight gain; also recorded: prevention weight gain | epididymal white adipose tissue (eWAT) weight [1, 4]: significantly decreased | fat deposition in the liver (histology) [1, 4]: markedly reduced; also recorded: appeared very similar to the tissue of mice fed with normal chow; also recorded: prevention of HFD-induced hepatosteatosis | metabolic parameters (GTT and HOMA-IR) [1, 4]: improved metabolic parameters; also recorded: improvement in metabolic parameters | weight gain and metabolic parameters [2]: does not prevent weight gain or improve metabolic parameters | time with no need of hand cream after treatment was discontinued ([3]; human individual treated for 14 days total): at least 9 weeks | scalp hair growth ([3]; human individual, 2 cycles of 2-week topical MC903 on the arm): substantial recovery of hair growth; also recorded: remotely promotes scalp hair growth | sebum on the forehead (sebutape) ([3]; one human individual, MC903 topically on the arm daily): increasing amounts of sebum on the forehead; also recorded: remotely increases sebum secretion | eczematous dry skin of a hand ([3]; one human individual, MC903 topically on the right arm daily): marked improvement; also recorded: remotely cures dry skin of the hand | dry eye symptoms (subjective) ([3]; two human individuals, MC903 on arm or leg daily for 14 days): improvement in dry eye symptoms; also recorded: remotely improves dry eye symptoms
